The values below come from patent publication US5214040A, “Nonsaditive antihistaminics derived from benzimidazoles” (Laboratorios del Dr. Esteve, S.A., priority 1991, dated 1993).

Series [1] concerns 48/80-induced death in rats. Kind of series: Protection against mortality caused by compound 48/80 in rats (antihistaminic activity in vivo). As to conditions: Rattus norvegicus, ip, 60 min before 48/80 (0.5 mg/kg, i.v.), survival 4 hours after, read-out: ED-50 (protection from 48/80-induced death). The protocol:
The antihistaminic activity was studied by determining the protection against the mortality caused by the product 48/80 in rats. This trial was performed according to the technique described by C.
The activity of the products is studied at several doses in order to determine the dose which is capable of protecting 50% of the animals (ED-50).
Finally, the antihistaminic activity of the product of Example 1 is indicated.

In the next series the test system is rats. Kind of series: Sedative effect: Irwin test (behaviour of rats). It is filed as in vivo. As to conditions: i.p.; for Atax. (ataxia) / pas. (passivity, sedation, prostration): score 0 to 3, 1, 2 and 3 hours after treatment. On the procedure: Pas.: Passivity, sedation, prostration. Quantitative evaluation between 0 and 3. They are performed 1, 2 and 3 hours after the treatment.
Atax.: Ataxia, the modifications of coordination in movement are evaluated. The are evaluated between 0 and 3. They are performed 1, 2 and 3 hours after the treatment.

Series [2] is described as follows: Sedative effect: potentiation of pentobarbital-induced duration of sleep. As to conditions: for potentiation of pentobarbital-induced duration of sleep (in words): orally; for Potentiation of duration of sleep: p.o., vs control group with pentobarbital 35 mg/kg, s.c.
Method: The studied products were administered orally. […] The duration of sleep was compared with a control group of animals treated only with sodium pentobarbital.

With `CN(C)CCOC(c1ccccc1)c1ccccc1` [Difenhidramine, reference compound], the ED50 in series [1] stood at 5.4 mg/kg. Also, in the series on rats (dose 40 mg/kg), the “Atax. (ataxia)” value is recorded as 0.9 and the “pas. (passivity, sedation, prostration)” value amounted to 0. For the same compound, the “potentiation of pentobarbital-induced duration of sleep (in words)” value in series [2] (at a dose of 20 mg/kg) is given as “significantly potentiates”.
`CCOCCn1c(CN2CCCN(CCCCn3cccn3)CC2)nc2ccccc21` [Example 1, 1-(2-ethoxyethyl)-2-{4-[4-(pyrazol-1-yl)butyl]homopiperazin-1-ylmethyl}benzimidazole]: the ED50 in series [1] is 0.04 mg/kg. The “sedative effect (in words)” value in the series with rats (Irwin test, rats) is given as “very weak sedative effect”. In the series on rats (dose 80 mg/kg), the “Atax. (ataxia)” value worked out at 0.2 and the “pas. (passivity, sedation, prostration)” value turned out to be 0. Moreover, the “Potentiation of duration of sleep” value in series [2] (dose 80 mg/kg) was 8%. The “Potentiation of duration of sleep” value in series [2] (dose 160 mg/kg) is on record as 1%. In addition, the “potentiation of pentobarbital-induced duration of sleep (in words)” value in series [2] (even at 160 mg/kg, the maximum dose tested) is “does not potentiate”.
